Experiments:
[1] = Plasma protein binding, equilibrium dialysis (RED), human; type: in vitro ADME; details: for recovery at 5 μM / fraction unbound at 5 μM: Human plasma, drug 5 μM; for fraction unbound at 5 μM: read-out: % bound (converted); for Free Fraction in Whole Blood Assay, Human: plasma free fraction
Experimental: Brain and plasma drug binding were performed by equilibrium dialysis using the Rapid Equilibrium Dialysis (RED) device. Briefly, 300 μL of plasma or brain homogenate (1 brain/3 buffer) containing drug (5 μM) was equilibrated (4-18 h) against 500 μL of buffered saline. After incubation, the concentration of drug in plasma/brain homogenate and buffer was determined by LC-MS/MS.
Recovery is calculated by determining the total amount of drug in 50 μL of plasma and 50 μL buffer after the incubation and comparing that value to the amount of drug in 50 μL of a plasma sample that was not incubated. For the protein binding assay, drug was added to the plasma and this plasma was added to one side of the dialysis device while buffer was added to the other. After filing the plasma chamber of the equilibrium device, a 50 μL aliquot of plasma was mixed with 50 μL of buffer and then quenched with stop reagent. Drug recovery=(Drug buffer+Drug plasma)/(drug in initial plasma)

IL23p19 in THP-1 Cells = assay: LPS induced IL23p19 in THP-1 cells (IFNγ primed), ELISA; type: cell-based; details: Homo sapiens; for IC50: THP-1, LPS, read-out: Cell Assays IC50, IL-23 (LPS, THP-1)
Experimental: On day 1, 50K/well THP-1 cells were seeded and primed with IFNγ (50 ng/mL) in 384-well plates for about 18 hours in RPMI media with 10% FBS. On day 2, the compound was serially diluted in DMSO from 5 mM in 3-fold dilutions, and then diluted 1:125 in RPMI media with 10% FBS. 50 μL/well 2× compound was added to 50 μL/well THP-1 cells (with IFNγ primed) in duplicate in 384 well tissue culture plates. The cells were pre-incubated with compound for 1 hour at 37° C., 5% CO2 before addition of 10 μL/well 11×LPS to give a final concentration of 1 μg/mL LPS. Day 3, after stimulation for 18 hours at 37° C., 5% CO2, the assay plate was centrifuged and 70 μL/well supernatant was harvested. IL-23p19 protein in 70 μL/well of supernatant was measured by sandwich ELISA, and 25 μl/well Cell Titer Glo reagent was added to the remaining cells to measure compound toxicity.
Maxisorp immuno ELISA plates were pre-coated with 25 μL/well of anti-IL-23p19 capture antibody (2.5 ug/mL) in PBS overnight at room temperature. After washing with 1×PBST, the plates were blocked using 100 μL/well of 1% BSA in PBS for 2 hours at room temperature. The plates were washed three times with 1×PBST and 70 μL/well supernatant were added. The plates were incubated at room temperature for 2 hours with shaking and washed three times with 1×PBST. 25 μL/well of biotin labeled anti-IL-12 (p40/p70) detection antibody (100 ng/mL) in PBS with 1% BSA was added and the plates were incubated at room temperature for 2 hours with shaking. After washing three times with 1× PBST, 25 μL/well of streptavidin-HRP (1:200) in PBS with 1% BSA was added and the plates were incubated at room temperature for 20 minutes with shaking. The plates were washed three times with 1× PBST and 25 μL/well of Super Signal ELISA Pico Chemiluminescent Substrate were added. The plates were read with a luminometer, and the chemiluminescence values were entered into Athena (Rigel) for curve fitting, EC50 calculation, and database storage.
THP-1 cells (100K in 100 μL/well) were primed with 25 ng/mL IFN-γ for 18 hours at 37° C., 5% CO2. Compound was serially diluted in DMSO from 2.5 mM in 4-fold dilutions, and then diluted 1:125 in RPMI 1640 complete media with 10% FBS. 100 μL/well 2× compound was mixed with the 100 μL/well IFN-7 primed THP-1 in 96 well flat-bottom white tissue culture plates. The cells were pre-incubated with compound for 1 hour at 37° C., 5% CO2 and before addition of 10 μL/well 21×LPS to give a final concentration of […] for LPS. The cells were stimulated with LPS for 18 hours at 37° C., 5% CO2. After centrifugation, 100 μL/well supernatant was extracted by using a multichannel pipette. IL-23p19 or TNF-α protein in the supernatant were measured by sandwich ELISA. The remaining IFN-7 primed THP-1 cell pellets were used to perform cell viability assays to determine compound cell toxicity. The plates were read with a luminometer, and the chemiluminescence values were entered into Athena (Rigel) for curve fitting, EC50 calculation, and database storage.
Maxisorp immuno ELISA plates were pre-coated with 100 μL/well of anti-IL-23p19 capture antibody (2.4 μg/mL) in PBS overnight at room temperature. After washing with 1×PBST, the plates were blocked using 300 μL/well of 1% BSA in PBS for 2 hours at room temperature. The plates were washed three times with 1×PBST and 100 μL/well supernatant was added. The plates were incubated at room temperature for 2 hours with shaking. The plates were washed three times with 1×PBST and 100 μL/well of biotin anti-human IL-12 (p40/70) detection antibody (10 ng/mL) in PBS with 0.1% BSA were added. The plates were incubated at room temperature for 2 hours with shaking. The plates were washed three times with 1×PBST and 100 μL/well streptavidin-HRP (1:200) in PBS with 0.1% BSA was added. The plates were incubated at room temperature for 20 minutes with shaking. […]

[2] = test system: TLR- and IL-1R-dependent cytokine production; assay: Cell assays, average of IL-23 (THP-1), TNFα (PBMC), TNFα (DC); type: cell-based; details: Homo sapiens, average of the three cell assays
Description: To evaluate the effect of compound I-1 on TLR and IL-1R-dependent cytokine release, multiple cell types were isolated and stimulated in the presence of compound I-1 or Comparison-1.

Structure (SMILES) | recovery at 5 μM [1] [%] | fraction unbound at 5 μM [1] | Free Fraction in Whole Blood Assay, Human [1] [%] | IC50 (IL23p19 in THP-1 Cells) [nM] | IC50 [2] [nM] | times more free than Comparison-1 (free drug) ([1]; in rat, dog, monkey and human proteins) | EC50 (IL23p19 in THP-1 Cells; THP-1 cells IFNγ primed, LPS 1 μg/mL, 18 h, read-out: IL23-p19 ELISA, THP1-IFNy, LPS, 10 pt EC50) [nM]
CCO[C@H]1CC[C@H](n2cc(NC(=O)c3csc(-c4cn[nH]c4)n3)c(-c3nc(F)ccc3F)n2)CC1 [Comparison-1, reference compound] | 75.5 | 0.004 | 0.4 | 63 | 32 | – | –
CCO[C@H]1CC[C@H](n2cc(NC(=O)c3csc(-c4cn[nH]c4)n3)c(-c3ncccn3)n2)CC1 [Compound I-1, N-(1-((1r,4r)-4-ethoxycyclohexyl)-3-(pyrimidin-2-yl)-1H-pyrazol-4-yl)-2-(1H-pyrazol-4-yl)thiazole-4-carboxamide] | 77.1 | 0.03 | 3.0 | 8 | 5 | approximately 6 times | 8

Reference: patent US12384775B2, “Pyrimid-2-yl-pyrazole compounds as IRAK inhibitors” (Rigel Pharmaceuticals, Inc., priority 2022, dated 2025)
